The text below walks through data of patent US8367840B2, “Composition for treating infectious diseases caused by Helicobacter” (Universidad de Zaragoza, priority 2007, dated 2013).

One test concerns the target T1, H. pylori flavodoxin (Helicobacter pylori, UniProt O25776).
T1 construct: made in house; host or cells: E. coli BL21 (flavodoxin, pET28a); E. coli JVQ2 (PFOR, pBS(KS)); E. coli BL21(DE3) (FqrB, pET29b)
T1 sequence (O25776 1-164): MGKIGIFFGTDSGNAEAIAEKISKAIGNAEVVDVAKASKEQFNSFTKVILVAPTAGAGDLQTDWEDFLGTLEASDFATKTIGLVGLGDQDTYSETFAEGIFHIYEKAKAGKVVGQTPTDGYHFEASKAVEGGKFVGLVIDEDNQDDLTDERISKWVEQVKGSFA
The experiment in a line: Inhibition of the pyruvate/PFOR/flavodoxin/FqrB/NADP+ electron transfer reaction (NADPH formation at 340 nm). The format is biochemical. The settings on record: 50 μM compound; anaerobic; 10 μM Fld, 0.09 mg/ml PFOR, 0.15 μM FqrB; FIG. 1. The text has this: Measurement of the absorbance (A) (AU is the unit of absorbance) at 340 nm against time (t) in seconds (s).
Flavodoxin is an essential protein for Helicobacter pylori survival as it participates in a fundamental reaction for obtaining energy from the oxidative decarboxylation of pyruvate. In this reaction, flavodoxin transfers electrons between the PFOR enzyme and the FqrB enzyme, which releases them to NADP^+.
The sequential reaction of electron transfer between pyruvate, PFOR, flavodoxin, FqrB and NADP^+ (activity assay) was followed spectroscopically by the appearance of the signal at 340 nm with the formation of NADPH. The reaction mixture contained 100 mM potassium phosphate pH 7, 10 mM pyruvate, 0.18 mM CoA, 1 mM MgCl, 0.3 mM NADP^+, 0.09 mg/ml PFOR, 10 μM Fld and 0.15 μM FqrB. The mixture, except CoA, was placed in a cuvette specially designed for anaerobic conditions. Oxygen was removed by means of 5 minute cycles with alternate flows of vacuum and argon. The reaction was started by the addition of 0.18 mM coenzyme A (CoA) that was held in a compartment inside the same cuvette. The reaction completed 15 minutes after adding the CoA reagent.
The inhibition assays were carried out in the same conditions as the activity assays previously described, adding an additional 50 μM of the disclosed compound of the general formula shown in (II) to the reaction cuvette.

Another test has as its target T2, flavodoxin of H. pylori (Helicobacter pylori, UniProt O25776).
T2 construct: made in house; host or cells: E. coli BL21
As to the kind of experiment: Binding to flavodoxin by isothermal titration calorimetry (ITC). The conditions noted are these: 50 mM EPPS buffer, pH 9, 7% DMSO, protein around 20 μM, read-out: affinity for flavodoxin. The protocol: The specific binding of the inhibitors of the present invention to flavodoxin of H. pylori was confirmed by isothermal titration calorimetry (ITC). This technique not only measures the affinity of each compound for the target protein, but also determines the contribution of the enthalpic and entropic components of binding.
The binding experiments were carried out in 50 mM EPPS buffer, pH 9 with 7% DMSO, with the inhibitor in the injection syringe at a concentration of 300-500 μM, and the protein around 20 μM in the measurement cell.
Background: In ITC the heat of successive injections is recorded.

Regarding `COc1ccc(CSc2ccc([N+](=O)[O-])c3nonc23)cc1` [formula (II)], on H. pylori flavodoxin, the “inhibition of NADPH formation (product formation curve, absorbance at 340 nm)” value is “almost total”. In addition, on flavodoxin of H. pylori, the Kd worked out at 3 µM.
